This note sets out measurements from patent US10166279B2, “Vaccine” (Bergen Teknologioverføring AS, priority 2013, dated 2019).

Peptide text beside a SMILES is read from it. Some results are limits rather than exact numbers.

One data set has as its target T1, GC-C receptor (Homo sapiens, UniProt P25092).
T1 construct: endogenous in cells; host or cells: T-84 cells
Nature of the data set: GC-C receptor T-84 cell assay (toxicity, cGMP levels) of culture filtrates. It is filed as cell-based. Conditions: culture filtrate; for Toxicity: relative to native STh, ^2 = no detectable toxicity, set to detection limit 0.0014; for toxicity relative to native STh: T84 cell assay. How it is done:
T-84 cells were seeded and cultured in each well of a 24 well plate. After removing the Dulbecco's modified Eagle's medium (DMEM:F12 (1:1) Lonza Walkersville, Inc.), cells were washed 3 times with 0.5 mL DMEM. Cells were incubated with 0.25 mL DMEM containing 1 mM 3-isobutyl-1-methylxanthine (IBMX) for 10 min at 37° C. 0.1 mL of sample (culture filtrate) was added to each well and incubated for 60 min at 37° C. Following incubation, the reaction medium was aspirated, and the cells were lysed with […] HCl at room temperature for 20 min. The lysates were centrifuged at top speed for 10 min and the cGMP levels were measured in control- and agonist-stimulated cells with a direct cGMP enzyme immunoassay kit (Enzo Life Sciences, Inc.) according to the manufacturer's instructions.
The culture filtrate of each mutant was added to the T-84 cells in duplicate, and a serial dilution of culture filtrates with recombinantly expressed native ST was used to generate a standard curve.
Toxicity measured in culture filtrates is a product of intrinsic toxicity (toxicity per mol) and the concentration of the ST mutant. The same is true for antigenicity. […] Since we have no method for accurately measuring ST (mutant) concentrations in culture filtrates, we are not able to directly measure intrinsic toxicities and antigenicities for the ST mutants.
To circumvent this problem we measure toxicity and antigenicity for the ST mutants relative to native ST. This allows us to describe changes in toxicity and antigenicity in mutant culture filtrates. Next, we divide the change in antigenicity by the change in toxicity for each mutant. If the same culture filtrate has been used to measure toxicity and antigenicity this allows us to eliminate the of the concentration.

A further data set relates to anti-STh mAb ST:G8. Nature of the data set: Competitive ELISA with anti-STh antibodies (polyclonal, mAb ST:G8). It is filed as binding. Conditions: polyclonal and monoclonal (ST:G8) anti-STh antibodies. How it is done: Competitive STh ELISA was performed as previously described (PMID: 6520401; Lockwood and Robertson, J Immunol Methods. 1984 Dec. 31; 75(2):295-307) with minor modifications. A U-shaped microtiter plate (Linbro, Fisher Scientific, Göteborg, Sweden) was coated with STh-ovalbumin conjugate diluted in ELISA buffer (NaCl 128 mM, KCl 2.68 mM, KH2PO4 1.47 mM, Na2HPO4 8.10 mM; pH 7.0-7.2). The plate was covered with plate sealer and incubated overnight at 37° C. Contents of the wells were discarded by inversion. Additional protein binding sites were blocked by incubating with ovalbumin 1% (w/v) (Sigma-Aldrich) diluted in ELISA buffer. After incubation for 1 h at 37° C., wells were emptied and washed three times with wash buffer (ELISA buffer containing ovalbumin 0.05% (w/v) and Tween-20 0.05% (v/v)). 75 μL of samples containing STh and 75 μL of diluted antisera (Protein-A purified rabbit anti-STa kindly supplied by John D. Clements; Department of Microbiology and Immunology, Tulane University, New Orleans, USA) were added. Both dilutions were done in ELISA buffer containing ovalbumin 0.05% (w/v). Appropriate dilutions and concentrations of reagents were determined by checkerboard titrations. The plate was incubated for 2 h at 37° C., in a rotary incubator shaker (Infors HT, Bottmingen/Basel Switzerland) at 180 rpm. Wells were emptied and washed three times with wash buffer. 100 μL of anti-Rabbit IgG Alkaline Phosphatase Conjugate developed in goat (Sigma-Aldrich) diluted 1:400 in ELISA buffer with ovalbumin 0.05% (w/v) were add and incubated with not shaking for 1 h at 37° C. Wells were emptied and washed three times with wash buffer followed by addition of 100 μL of 4-Nitrophenyl phosphate disodium salt hexahydrate at 1 mg/mL in diethanolamine buffer (diethanolamine 9.7% (v/v), MgCl2×6H2O 0.49 mM; pH 9.8). After incubation for 30 min, the reaction was stopped with 50 μL 2N NaOH (VWR international) in each well. The absorbance was read in an automatic plate reader at 405 nm (FLUOstar OPTIMA; BMG Labtech, Germany). All samples were measured in triplicate.
The anti-STh mAb ST:G8 was kindly supplied by S. Visweswariah [Garrett & Visweswariah; PMID: 8950201]. The anti-STp mAbs clone 29, clone 30, and clone 31 were obtained from Fitzgerald Industries International.
ELISA-plates (Nunc Amino Immobilizer) were coated with STh-OvA conjugate in PBS, volume 100 μl per well (synthetic STh conjugated to OvA: For ST:G8 0.04 μl/well, for clone 29 and clone 30 0.01 μl/well). Plates were incubated overnight at 4 C. Subsequently, plates were emptied and blocked with PBS-T 1% OvA for 1h at 20° C. with shaking 180 rpm. […] Developing was stopped by adding 50 μl NaOH 2M to each well, and OD was read at 405 nm with a Fluostar Optima plate reader.

T1 sequence (P25092 24-1073): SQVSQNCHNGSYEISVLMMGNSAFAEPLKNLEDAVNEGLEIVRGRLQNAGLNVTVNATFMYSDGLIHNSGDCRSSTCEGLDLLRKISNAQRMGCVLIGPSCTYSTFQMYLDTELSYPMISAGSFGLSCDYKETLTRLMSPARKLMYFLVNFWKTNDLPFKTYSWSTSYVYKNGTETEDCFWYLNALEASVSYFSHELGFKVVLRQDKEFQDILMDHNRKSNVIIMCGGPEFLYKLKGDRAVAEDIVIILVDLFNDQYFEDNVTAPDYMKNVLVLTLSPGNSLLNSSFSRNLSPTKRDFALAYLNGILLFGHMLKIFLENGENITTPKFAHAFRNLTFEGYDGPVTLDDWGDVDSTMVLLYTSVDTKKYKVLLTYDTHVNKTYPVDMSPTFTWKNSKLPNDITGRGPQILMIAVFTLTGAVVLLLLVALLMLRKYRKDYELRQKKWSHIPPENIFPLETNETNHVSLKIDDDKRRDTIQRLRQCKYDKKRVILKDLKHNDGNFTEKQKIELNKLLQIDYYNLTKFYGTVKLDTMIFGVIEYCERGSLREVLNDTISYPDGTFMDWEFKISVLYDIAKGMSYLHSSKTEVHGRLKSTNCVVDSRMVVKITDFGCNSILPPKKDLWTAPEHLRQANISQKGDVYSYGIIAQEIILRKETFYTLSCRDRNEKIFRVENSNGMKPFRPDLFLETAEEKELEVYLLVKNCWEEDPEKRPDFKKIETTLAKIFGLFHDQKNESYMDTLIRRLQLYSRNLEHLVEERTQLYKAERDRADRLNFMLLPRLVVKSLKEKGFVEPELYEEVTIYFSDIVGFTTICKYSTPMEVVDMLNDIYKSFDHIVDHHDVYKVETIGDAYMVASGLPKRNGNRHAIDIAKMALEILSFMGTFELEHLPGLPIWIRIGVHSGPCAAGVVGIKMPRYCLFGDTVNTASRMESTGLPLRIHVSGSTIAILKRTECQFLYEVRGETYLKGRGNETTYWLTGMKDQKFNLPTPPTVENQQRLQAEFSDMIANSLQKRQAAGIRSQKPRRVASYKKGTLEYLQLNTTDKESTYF

Turning to `CC(C)C[C@@H]1NC(=O)[C@H](CCC(=O)O)NC(=O)[C@@H]2CSSC[C@@H]3NC(=O)[C@H](C)NC(=O)[C@@H]4CCCN4C(=O)[C@H](CCCCN)NC(=O)[C@H](CSSC[C@H](NC(=O)[C@H](Cc4ccc(O)cc4)NC(=O)[C@H](CC(N)=O)NC(=O)[C@H](CO)NC(=O)[C@H](CO)NC(=O)[C@@H](N)CC(N)=O)C(=O)N2)NC(=O)[C@H](CSSC[C@@H](C(=O)N[C@@H](Cc2ccc(O)cc2)C(=O)O)NC(=O)CNC(=O)[C@H]([C@@H](C)O)NC3=O)NC1=O` [Mutant N12K] (HELM PEPTIDE1{N.S.S.N.Y.C.C.E.L.C.C.K.P.A.C.T.G.C.Y}$PEPTIDE1,PEPTIDE1,6:R3-11:R3|PEPTIDE1,PEPTIDE1,7:R3-15:R3|PEPTIDE1,PEPTIDE1,10:R3-18:R3$$$V2.0), on GC-C receptor, the Toxicity is on record as 0.5113.

Regarding `CC(C)C[C@@H]1NC(=O)[C@H](CCC(=O)O)NC(=O)[C@@H]2CSSC[C@@H]3NC(=O)[C@H](C)NC(=O)[C@@H]4CCCN4C(=O)[C@H]([C@@H](C)O)NC(=O)[C@H](CSSC[C@H](NC(=O)[C@H](Cc4ccc(O)cc4)NC(=O)[C@H](CC(N)=O)NC(=O)[C@H](CO)NC(=O)[C@H](CO)NC(=O)[C@@H](N)CC(N)=O)C(=O)N2)NC(=O)[C@H](CSSC[C@@H](C(=O)N[C@@H](Cc2ccc(O)cc2)C(=O)O)NC(=O)CNC(=O)[C@H]([C@@H](C)O)NC3=O)NC1=O` [Mutant N12T] (HELM PEPTIDE1{N.S.S.N.Y.C.C.E.L.C.C.T.P.A.C.T.G.C.Y}$PEPTIDE1,PEPTIDE1,6:R3-11:R3|PEPTIDE1,PEPTIDE1,7:R3-15:R3|PEPTIDE1,PEPTIDE1,10:R3-18:R3$$$V2.0), the “toxicity relative to native STh” value at GC-C receptor is listed as 0.03.

`CC(C)C[C@@H]1NC(=O)[C@H](CCC(=O)O)NC(=O)[C@@H]2CSSC[C@@H]3NC(=O)[C@H](C)NC(=O)[C@@H]4CCCN4C(=O)[C@H](C(C)C)NC(=O)[C@H](CSSC[C@H](NC(=O)[C@H](Cc4ccc(O)cc4)NC(=O)[C@H](CC(N)=O)NC(=O)[C@H](CO)NC(=O)[C@H](CO)NC(=O)[C@@H](N)CC(N)=O)C(=O)N2)NC(=O)[C@H](CSSC[C@@H](C(=O)N[C@@H](Cc2ccc(O)cc2)C(=O)O)NC(=O)CNC(=O)[C@H]([C@@H](C)O)NC3=O)NC1=O` [Mutant N12V] (HELM PEPTIDE1{N.S.S.N.Y.C.C.E.L.C.C.V.P.A.C.T.G.C.Y}$PEPTIDE1,PEPTIDE1,6:R3-11:R3|PEPTIDE1,PEPTIDE1,7:R3-15:R3|PEPTIDE1,PEPTIDE1,10:R3-18:R3$$$V2.0): the “toxicity relative to native STh” value at GC-C receptor was determined as 0.01.

As for `CC(C)C[C@@H]1NC(=O)[C@H](CCC(=O)O)NC(=O)[C@@H]2CSSC[C@@H]3NC(=O)[C@H](C)NC(=O)[C@H](C)NC(=O)[C@H](CC(N)=O)NC(=O)[C@H](CSSC[C@H](NC(=O)[C@H](Cc4ccc(O)cc4)NC(=O)[C@H](CC(N)=O)NC(=O)[C@H](CO)NC(=O)[C@H](CO)NC(=O)[C@@H](N)CC(N)=O)C(=O)N2)NC(=O)[C@H](CSSC[C@@H](C(=O)N[C@@H](Cc2ccc(O)cc2)C(=O)O)NC(=O)CNC(=O)[C@H]([C@@H](C)O)NC3=O)NC1=O` [Mutant P13A] (HELM PEPTIDE1{N.S.S.N.Y.C.C.E.L.C.C.N.A.A.C.T.G.C.Y}$PEPTIDE1,PEPTIDE1,6:R3-11:R3|PEPTIDE1,PEPTIDE1,7:R3-15:R3|PEPTIDE1,PEPTIDE1,10:R3-18:R3$$$V2.0), the Toxicity at GC-C receptor is listed as < 0.0014^2. Consider `CC(C)C[C@@H]1NC(=O)[C@H](CCC(=O)O)NC(=O)[C@@H]2CSSC[C@@H]3NC(=O)[C@H](C)NC(=O)[C@@H]4CCCN4C(=O)[C@H](CC(N)=O)NC(=O)[C@H](CSSC[C@H](NC(=O)[C@H](Cc4ccc(O)cc4)NC(=O)[C@H](CC(N)=O)NC(=O)[C@H](CO)NC(=O)[C@H](CC(N)=O)NC(=O)[C@@H](N)CC(N)=O)C(=O)N2)NC(=O)[C@H](CSSC[C@@H](C(=O)N[C@@H](Cc2ccc(O)cc2)C(=O)O)NC(=O)CNC(=O)[C@H]([C@@H](C)O)NC3=O)NC1=O` [Mutant S02N] (HELM PEPTIDE1{N.N.S.N.Y.C.C.E.L.C.C.N.P.A.C.T.G.C.Y}$PEPTIDE1,PEPTIDE1,6:R3-11:R3|PEPTIDE1,PEPTIDE1,7:R3-15:R3|PEPTIDE1,PEPTIDE1,10:R3-18:R3$$$V2.0), for which the Toxicity at GC-C receptor was determined as 0.7308. `CC(C)C[C@@H]1NC(=O)[C@H](CCC(=O)O)NC(=O)[C@@H]2CSSC[C@@H]3NC(=O)[C@H](C)NC(=O)[C@@H]4CCCN4C(=O)[C@H](CC(N)=O)NC(=O)[C@H](CSSC[C@H](NC(=O)[C@H](Cc4ccc(O)cc4)NC(=O)[C@H](CC(N)=O)NC(=O)[C@H](Cc4ccccc4)NC(=O)[C@H](CO)NC(=O)[C@@H](N)CC(N)=O)C(=O)N2)NC(=O)[C@H](CSSC[C@@H](C(=O)N[C@@H](Cc2ccc(O)cc2)C(=O)O)NC(=O)CNC(=O)[C@H]([C@@H](C)O)NC3=O)NC1=O` [Mutant S03F] (HELM PEPTIDE1{N.S.F.N.Y.C.C.E.L.C.C.N.P.A.C.T.G.C.Y}$PEPTIDE1,PEPTIDE1,6:R3-11:R3|PEPTIDE1,PEPTIDE1,7:R3-15:R3|PEPTIDE1,PEPTIDE1,10:R3-18:R3$$$V2.0) registered a Toxicity at GC-C receptor of 0.3871. For `CC(C)C[C@@H]1NC(=O)[C@H](CCC(=O)O)NC(=O)[C@@H]2CSSC[C@@H]3NC(=O)[C@H](C)NC(=O)[C@@H]4CCCN4C(=O)[C@H](CC(N)=O)NC(=O)[C@H](CSSC[C@H](NC(=O)[C@H](Cc4ccc(O)cc4)NC(=O)[C@H](CC(N)=O)NC(=O)[C@H](CO)NC(=O)[C@H](CO)NC(=O)[C@@H](N)CC(N)=O)C(=O)N2)NC(=O)[C@H](CSSC[C@@H](C(=O)N[C@@H](Cc2ccc(O)cc2)C(=O)O)NC(=O)CNC(=O)[C@H](CCCNC(=N)N)NC3=O)NC1=O` [Mutant T16R] (HELM PEPTIDE1{N.S.S.N.Y.C.C.E.L.C.C.N.P.A.C.R.G.C.Y}$PEPTIDE1,PEPTIDE1,6:R3-11:R3|PEPTIDE1,PEPTIDE1,7:R3-15:R3|PEPTIDE1,PEPTIDE1,10:R3-18:R3$$$V2.0), the Toxicity on GC-C receptor came to 0.0111. Take NSSNYCCELCCNPACTGCY [STh]: the “binding by anti-STh antibodies” value in the data set on anti-STh mAb ST:G8 is reported as “bound”. Still for that read-out and setting: in the case of NTFYCCELCCNPACAGCY [STp] it was “bound”; in that of “guanylin (PGTCEICAYAACTGC) [endogenous peptide ligand of the GC-C receptor]”, “not”.
